# Experimental data published in US11844801B2, “Oral compositions of MK2 pathway inhibitor for treatment of immune conditions” (priority 2020, dated 2023).
# Values joined by “and” are separate entries in the source; they are usually repeats but may differ in a detail not shown here. Identical values can stand only once.
# Key:
# TNF-α = assay: Differentiated U937 cell LPS stimulated cytokine assay (TNF-α); assay type: cell-based; conditions: Homo sapiens, U-937, U937 cells, 100 ng/mL, 4 hr
# Description: U937 Cell differentiation and LPS stimulated cytokine assay: The U937 human pre-monocytic cell line (ATCC, CRL-1593.2) was grown in complete media: RPMI 1640 (Gibco, A10491) with penicillin-streptomycin (10 U/mL)-glutamine (2 mM) (Gibco, 10378016) and 10% FBS(Gibco, 26140-079). Cells were differentiated to a monocyte/macrophage phenotype with the addition of PMA (Sigma-Aldrich, P1585) (20 ng/mL, 24 hours), washed with DPBS (Gibco, 14190-136) and incubated in complete media for 24 hours at 37° C., 5% CO2. Following recovery, the cells were scraped, counted, re-plated in complete media in accordance with the experimental design and incubated for an additional 24 hours at 37° C., 5% CO2 prior to stimulation with LPS (Sigma-Aldrich, L2630) as described below. Differentiated U937 cells were pretreated for one hour in the presence of serially diluted compound or vehicle then stimulated with LPS at a final concentration of 100 ng/mL for four hours. Culture media was then collected for determination of cytokine levels using Meso Scale Technology.
# IL-1β = assay: Ex vivo LPS-stimulated IL-1β in blood of dosed healthy subjects, PK/PD inhibitory Emax model; parameters: species or system human
# Description: Blood samples of 10 mL were collected for PD analysis. For the SAD cohorts, blood was collected before dosing and 1, 12, and 24 hours after dosing. For the MAD cohorts, on day 1 blood was collected before the morning dose and 4 and 12 hours after the morning dose (prior to the evening dose); on day 7, blood was collected before the morning dose and 4 and 12 hours after the morning dose.
# Additional details of the assays for analyzing p-HSP27 and cytokines are included in the Supplementary Information.
# Pharmacodynamics. PD data analysis was conducted using Microsoft Excel 2010 (Microsoft, Redmond, WA), Meso Scale Discovery Workbench® analysis software (Rockville, MD), and Phoenix WinNonlin, version 8.2.
# Sample Preparation for Cytokine Analysis. For each sample, 180 μL aliquots were transferred into 7 wells of a round bottom 96 well tissue culture polystyrene low evaporation plate. […] No outer wells on the plates were used and all wells surrounding the samples contained 200 μL of phosphate buffered saline.
# DMSO was added to all wells in groups ‘A’ and ‘C’ to a final concentration of 0.1% ([…] of a 2% DMSO solution in DMEM containing 10% FBS and 1% penicillin/streptomycin/glutamine). […] Samples were mixed gently for 30 seconds on a plate shaker using pin tools, then placed in an incubator at 37° C./5% CO2 for 1 hour.
# Samples in groups ‘A’ and ‘B’ were stimulated with lipopolysaccharide at a final concentration of 100 ng/mL. A stock solution of lipopolysaccharide at 1 mg/mL in DMEM containing 10% FBS and 1% penicillin/streptomycin was diluted to […] in DMEM containing 10% FBS and 1% penicillin/streptomycin, and […] of this working solution was added per well of blood for all samples in groups ‘A’ and ‘B’. […] of DMEM containing 10% FBS only was added per well of blood for all samples in group ‘C’ (unstimulated samples). Samples were mixed gently for 30 seconds on a plate shaker using pin tools, then placed in an incubator at 37° C./5% CO2 for 5 hours.
# Following the incubation, the plates were removed from the incubator and sealed with adhesive clear plate seals. The plates were then centrifuged for 10 minutes at 1800×g at room temperature. […] of plasma was removed from each well and transferred to a 96-well polypropylene round bottom master plate, which was then sealed and frozen at −80° C. until all samples from the respective cohort were generated. Once all samples from a given cohort were generated, the samples were analyzed for cytokine (TNF-α, IL-1b, IL-6, and IL-8) production using Meso Scale Discovery Technology.
# Analysis of Cytokine Levels Using Meso Scale Discovery Technology. All lipopolysaccharide plasma samples were analyzed for cytokine production with a V-Plex Human Proinflammatory Panel II (4-Plex) Kit from Meso Scale Discovery (Rockville, MD). The master plates containing the plasma samples were thawed on ice, and a daughter plate consisting of a 25-fold dilution of each plasma sample (3 μL of plasma plus 72 μL of Meso Scale Discovery Diluent 2) was generated for each master plate. The diluted plasma samples from the daughter plates were used in the cytokine analysis. The Meso Scale Discovery 4-plex plates were washed 3 times with 150 μL/well of wash buffer (1×KPL phosphate buffered saline with Tween 20 from SeraCare [Milford, MA]). Prepared calibrators and the samples from the daughter plates were added to the washed Meso Scale Discovery 4-plex plates at 50 μL/well. The 4-plex plates were sealed and shaken overnight at 4° C.
# After the overnight incubation, the samples were removed by decanting. The 4-plex plates were then washed 3 times with 150 μL/well of wash buffer. […]
smiles,measurement,setting,value
"Cc1cnc(-c2ccnc(C(C)(C)O)n2)cc1-n1c(C)cc(OCc2ncc(F)cc2F)c(Cl)c1=O (single isomer, unassigned) [ATI-450, 3-chloro-4-((3,5-difluoropyridin-2-yl)methoxy)-2′-(2-(2-hydroxypropan-2-yl)pyrimidin-4-yl)-5′,6-dimethyl-2H-[1,4′-bipyridin]-2-one]",IC50,TNF-α,1.55 ± 0.35 nM
same,IL-1β inhibition versus baseline,IL-1β; 50 mg BID MAD cohort,≤ 83.0%
same,Cmax (Multiple of IC80),"IL-1β; 50 mg BID, day 7",5.4x
same,Ctrough (Multiple of IC80),"IL-1β; 50 mg BID, day 7",2.2x
same,IC80,"IL-1β; Homo sapiens, calculated from IC50, combined SAD and MAD data, read-out: IC80, plasma concentration at 80% of maximal inhibition",0.0408 µg/mL
same,IC50,"IL-1β; Homo sapiens, inhibitory Emax model, combined SAD and MAD data, read-out: IC50, plasma concentration at half maximal inhibition",0.0102 µg/mL
same,"IC80, plasma concentration at 80% of maximal inhibition","IL-1β; calculated from IC50, combined SAD and MAD data",0.0408 µg/mL
same,"Imax, maximum percent inhibition",IL-1β; inhibitory Emax model,74% and 74.3%
